Assay [1] concerns Human immunodeficiency virus 1. The experiment in a line: Antiviral activity was evaluated for the inhibition of wild-type RF strain of HIV-1 in an in vitro enzyme assay. The format is functional.
In assay [2] the target is Human immunodeficiency virus type 1 reverse transcriptase (Human immunodeficiency virus 1, UniProt Q72547). The experiment in a line: Inhibition of HIV-1 reverse transcriptase.
The subject of assay [3] is Human immunodeficiency virus 1. Briefly: Antiviral activity against HIV-1 K103N mutant virus. The assay is classed as functional.
Assay [4] deals with Human immunodeficiency virus type 1 reverse transcriptase (Human immunodeficiency virus 1) (UniProt Q72547). To be noted: Plasma.
Description: Effect of human plasma protein binding on antiviral efficacy.
For assay [5], the system named is Human immunodeficiency virus 1. Briefly: Antiviral activity toward K103N mutant HIV-1 virus as protein binding adjusted (PB adj). The assay is classed as functional.
Assay [6] deals with Human immunodeficiency virus 1. The experiment in a line: In vitro antiviral activity against HIV-1 (L100I). The assay is classed as functional.
Assay [7] relates to Human immunodeficiency virus 1. Briefly: Compound was evaluated for the inhibition of wilde-type RF strain of HIV-1. The format is functional.
The target in assay [8] is Human immunodeficiency virus type 1 reverse transcriptase (Human immunodeficiency virus 1) (UniProt Q72547). Briefly: Compound was evaluated for the inhibition of HIV-1 Reverse transcriptase.
Assay [9] is filed under the species Homo sapiens. The experiment in a line: percentage of the free compound in human serum. The assay is classed as cell-free.
For assay [10], the species on record is Homo sapiens. The experiment in a line: percentage of the free compound in tissue culture medium.
For assay [11], the system named is Human immunodeficiency virus 1. The experiment in a line: Compound was evaluated for antiviral activity against L100I mutant virus. The format is functional.

Usually IC90 stands for the concentration at which the effect reaches the 90% level. A word on the IC50: it is the midpoint of a concentration-inhibition curve. Low values mean higher potency, high ones lower potency.

As for `O=C1Nc2ccc(Cl)c(F)c2[C@@](C#CC2CC2)(C(F)(F)F)N1`, the IC90 in [1] amounted to 4.8 nM; in assay [3] (Human immunodeficiency virus 1), 18 nM; in [4] it was 40 nM; in assay [5], 151 nM. The same compound gave a half-maximal inhibitory concentration (IC50) in [2] of 102 nM.

As to `O=C1Nc2ccc(F)c(Cl)c2[C@@](C#CC2CC2)(C(F)(F)F)N1`, the IC90 in assay [1] was 2.7 nM; in assay [3] (Human immunodeficiency virus 1), 18 nM; in assay [6], 16 nM; in [4], 27 nM; in [5], 178 nM. This compound also had an IC50 in assay [2] of 59 nM.

In the case of `O=C1Nc2ccc(F)cc2[C@@](C#CC2CC2)(C(F)(F)F)N1`, the IC90 in assay [1] was determined as 2 nM; in assay [3] (Human immunodeficiency virus 1), 48 nM; in assay [6], 29 nM; in assay [4], 24 nM; in [5], 566 nM. In assay [2], this compound gave an IC50 of 50 nM.

For the compound `CC(C)C#C[C@]1(C(F)(F)F)NC(=O)Nc2ccc(F)cc21`, the IC90 in [1] came out at 2.6 nM; in [3] (Human immunodeficiency virus 1), 27 nM; in assay [6] it was 17 nM; in [4], 86 nM; in assay [5], 891 nM. In [2], this compound showed a concentration for half-maximal inhibition (IC50) of 39 nM.

`O=C1Nc2ccc(Cl)cc2[C@@](C#CC2CC2)(C(F)(F)F)N1` (stereo in doubt; 14) [listing 1 of 2 here] had an IC90 in assay [4] of 41 nM.

In assay [4], `CC(C)C#C[C@]1(C(F)(F)F)NC(=O)Nc2ccc(F)c(F)c21` (stereo in doubt; 20) [listing 1 of 2 here] registered a concentration for an effect of 90% (IC90) of 21 nM. This IC90 lies about 2-fold lower than the previous one.

Consider `Cc1ccnc2c1NC(=O)c1cccnc1N2C1CC1` [NEVIRAPINE], for which the IC90 was 50 nM in [1], 5100 nM in [3] (Human immunodeficiency virus 1), 100 nM in assay [4] and 10200 nM in [5].

Take `O=C1Nc2ccc(Cl)cc2[C@@](C#Cc2ccccc2)(C(F)(F)F)N1`: the IC90 in assay [1] worked out at 7.1 nM; in assay [3] (Human immunodeficiency virus 1), 250 nM; in assay [6], 365 nM; in assay [4] it was 86 nM; in assay [5] it was 3000 nM. Inhibition in assay [2] was half-maximal at 277 nM (IC50).

Regarding `O=C1Nc2ccc(F)c(F)c2[C@](C#CC2CC2)(C(F)(F)F)N1`, the IC90 in assay [7] amounted to 101 nM; in assay [8], 6600 nM.

In assay [8], `O=C1Nc2ccc(F)c(F)c2[C@@](C#CC2CC2)(C(F)(F)F)N1` (stereo in doubt) displayed a concentration for an effect of 90% (IC90) of 18 nM. The Free worked out at 2.8% in assay [9] and 37% in assay [10].

`O=C1Nc2ccc(F)c(F)c2[C@@](C#CC2CC2)(C(F)(F)F)N1` (stereo in doubt; 13) [listing 1 of 2 here] registered an IC90 in [4] of 19 nM.

Regarding `O=C1Nc2ccc(Cl)cc2[C@@](C#Cc2ccccn2)(C(F)(F)F)N1`, the concentration for an effect of 90% (IC90) in assay [1] turned out to be 3.4 nM; in assay [3] (Human immunodeficiency virus 1) it was 160 nM; in assay [6], 64 nM; in [4], 79 nM; in assay [5] it was 3730 nM. Besides, the half-maximal inhibitory concentration (IC50) in assay [2] worked out at 129 nM.

As for `COc1ccc2c(c1)[C@@](C#CC1CC1)(C(F)(F)F)NC(=O)N2`, the concentration for an effect of 90% (IC90) was 2.9 nM in [1]; 40 nM in assay [3] (Human immunodeficiency virus 1); 46 nM in assay [6]; 29 nM in assay [4]; 396 nM in assay [5]. Inhibition in [2] was half-maximal at 124 nM (IC50).

Take `O=C1Nc2ccc(F)c(F)c2[C@@](C#Cc2ccccc2)(C(F)(F)F)N1`: the IC90 in assay [1] was determined as 6.2 nM; in assay [3] (Human immunodeficiency virus 1), 191 nM; in [6], 256 nM; in [4], 43 nM; in assay [5], 1340 nM. This compound also displayed an IC50 in assay [2] of 181 nM.

Take `CC(C)Nc1cccnc1N1CCN(C(=O)c2cc3cc(NS(C)(=O)=O)ccc3[nH]2)CC1` [DELAVIRDINE]: the IC90 in assay [1] is 37 nM; in assay [3] (Human immunodeficiency virus 1), 1000 nM; in [5] it was 38000 nM.

For the compound `O=C1Nc2ccc(Cl)cc2[C@@](C#CC2CC2)(C(F)(F)F)N1` (stereo in doubt), it took 31 nM to reach the 90% level in [8] (IC90).

Take `CC(C)C#C[C@]1(C(F)(F)F)NC(=O)Nc2ccc(F)c(F)c21` (stereo in doubt; 20) [listing 2 of 2 here]: the IC90 in assay [1] turned out to be 2.1 nM; in assay [3] (Human immunodeficiency virus 1), 14 nM; in assay [6] it was 10 nM; in [5] it was 139 nM. The same compound came in with an IC50 in assay [2] of 91 nM.

As to `O=C1Nc2ccc(F)c(F)c2[C@@](C#Cc2ccccn2)(C(F)(F)F)N1`, the IC90 in assay [1] worked out at 2 nM; in [3] (Human immunodeficiency virus 1) it was 109 nM; in assay [6] it was 37 nM; in [4] it was 24 nM; in assay [5] it was 1310 nM. In assay [2], this compound returned an IC50 of 68 nM.

Take `CC(C)C#C[C@@]1(C(F)(F)F)NC(=O)Nc2ccc(F)c(F)c21`: the results for the concentration for an effect of 90% (IC90) in assay [7] and in assay [8] were 229 nM and 1520 nM, respectively.

Take `CC(C)C#C[C@]1(C(F)(F)F)NC(=O)Nc2ccc(F)c(F)c21` (stereo in doubt; 37) [listing 1 of 2 here]: the 90% effect concentration (IC90) came out at 1.6 nM in [7] and 9 nM in [3].

`O=C1Nc2cccc(Cl)c2[C@@](C#CC2CC2)(C(F)(F)F)N1`: the 90% effect concentration (IC90) in assay [1] turned out to be 2.5 nM; in assay [3] (Human immunodeficiency virus 1) it was 63 nM; in assay [6] it was 70 nM; in assay [4], 18 nM; in assay [5], 441 nM. The compound further had an IC50 in assay [2] of 72 nM.

In the case of `CCC#C[C@]1(C(F)(F)F)NC(=O)Nc2ccc(F)cc21`, the concentration for an effect of 90% (IC90) in assay [11] worked out at 74 nM; in [1] it was 2.5 nM; in assay [3] (Human immunodeficiency virus 1), 71 nM; in assay [4], 25 nM; in assay [5], 710 nM. The IC50 in assay [2] is 54 nM.

Turning to `CCC#C[C@]1(C(F)(F)F)NC(=O)Nc2ccc(Cl)cc21`, the IC90 in assay [1] was determined as 3.3 nM; in [3] (Human immunodeficiency virus 1), 26 nM; in [4] it was 83 nM; in assay [5], 826 nM. Half-maximal inhibition in [2] (IC50) was put at 110 nM.

For the compound `O=C1Nc2cccc(F)c2[C@@](C#CC2CC2)(C(F)(F)F)N1`, the concentration for an effect of 90% (IC90) came to 1.4 nM in assay [1]; 89 nM in assay [3] (Human immunodeficiency virus 1); 108 nM in [6]; 14 nM in assay [4]; 917 nM in assay [5]. This compound also displayed a concentration for half-maximal inhibition (IC50) in assay [2] of 62 nM.

`O=C1Nc2ccc(Cl)cc2[C@](C#CC2CC2)(C(F)(F)F)N1`: the IC90 turned out to be 34000 nM in assay [7] and 267 nM in assay [8].

Turning to `CC(C)C#C[C@]1(C(F)(F)F)NC(=O)Nc2ccc(F)c(F)c21` (stereo in doubt; 37) [listing 2 of 2 here], in assay [8], the concentration for an effect of 90% (IC90) is 15 nM.

`O=C1Nc2ccc(Cl)cc2[C@@](C#CC2CC2)(C(F)(F)F)N1` (stereo in doubt; 14) [listing 2 of 2 here]: the IC90 is 2.7 nM in assay [1], 22 nM in assay [3], 18 nM in assay [6] and 336 nM in [5]. This compound also gave an IC50 in assay [2] of 111 nM.

As to `COc1ccc2c(c1)[C@@](C#Cc1ccccn1)(C(F)(F)F)NC(=O)N2`, the IC90 in assay [1] was 8.1 nM; in assay [3] (Human immunodeficiency virus 1), 338 nM; in assay [6], 98 nM; in [4], 138 nM; in assay [5], 5880 nM. In addition, half-maximal inhibition in assay [2] (IC50) required 237 nM.

For `O=C1Nc2ccc(F)cc2[C@@](C#Cc2ccccc2)(C(F)(F)F)N1`, the 90% effect concentration (IC90) was determined as 6.6 nM in assay [1]; 322 nM in assay [3] (Human immunodeficiency virus 1); 677 nM in [6]; 66 nM in [4]; 3220 nM in assay [5]. The compound also gave an IC50 in [2] of 143 nM.

Consider `O=C1Nc2ccc(Cl)c(Cl)c2[C@@](C#CC2CC2)(C(F)(F)F)N1`, for which the IC90 in assay [1] stood at 8 nM; in assay [3] (Human immunodeficiency virus 1), 18 nM; in assay [4] it was 88 nM; in [5], 196 nM. Also, the 50% inhibitory concentration (IC50) in [2] was found to be 166 nM.

As to `COc1ccc2c(c1)[C@@](C#Cc1ccccc1)(C(F)(F)F)NC(=O)N2`, the concentration for an effect of 90% (IC90) in assay [1] came to 3.2 nM; in assay [3] (Human immunodeficiency virus 1) it was 283 nM; in [6] it was 462 nM; in assay [4], 42 nM; in [5] it was 3590 nM. Moreover, it took 219 nM to reach half-maximal inhibition in assay [2] (IC50).

In the case of `O=C1Nc2ccc(F)cc2[C@@](C#Cc2ccccn2)(C(F)(F)F)N1`, the IC90 in [1] is 5 nM; in assay [3] (Human immunodeficiency virus 1), 483 nM; in [6] it was 255 nM; in assay [4] it was 33 nM; in [5], 3140 nM. Further, in assay [2], the half-maximal inhibitory concentration (IC50) is 126 nM.

With `CC(C)C#C[C@]1(C(F)(F)F)NC(=O)Nc2ccc(Cl)cc21`, the 90% effect concentration (IC90) in [1] came out at 3 nM; in assay [3] (Human immunodeficiency virus 1), 22 nM; in assay [6] it was 28 nM; in [4] it was 90 nM; in [5] it was 653 nM. Moreover, in assay [2], the half-maximal inhibitory concentration (IC50) amounted to 281 nM.

As for `COc1ccc2c(c1)[C@@](C#CC(C)C)(C(F)(F)F)NC(=O)N2`, the IC90 in [1] came to 3.8 nM; in [3] (Human immunodeficiency virus 1), 56 nM; in assay [6] it was 28 nM; in assay [4], 42 nM; in assay [5], 599 nM. Besides, the IC50 in assay [2] came out at 401 nM.

For the compound `CC(C)C#C[C@]1(C(F)(F)F)NC(=O)Nc2ccc(F)c(Cl)c21`, the IC90 in assay [1] amounted to 3 nM; in assay [3] (Human immunodeficiency virus 1), 15 nM; in [6], 13 nM; in assay [4], 15 nM; in [5], 74 nM. The concentration for half-maximal inhibition (IC50) in assay [2] was 78 nM.

As to `O=C1Nc2ccc(F)c(F)c2[C@@](C#CC2CC2)(C(F)(F)F)N1` (stereo in doubt; 13) [listing 2 of 2 here], the 90% effect concentration (IC90) in assay [1] was 2.1 nM; in [3] (Human immunodeficiency virus 1), 13 nM; in assay [6] it was 12 nM; in assay [5], 119 nM. The IC50 in assay [2] came to 74 nM.

These data come from ChEMBL document CHEMBL1133185, “Inhibition of clinically relevant mutant variants of HIV-1 by quinazolinone non-nucleoside reverse transcriptase inhibitors” (J Med Chem, 2000).
